Ten molecules from ChEMBL document CHEMBL1201862, “PubChem BioAssay data set” (2004) can be followed below.

Some test systems named below: A498; DU-145; HCT-116; HCT-15; HOP-92; Hs-578T; K562; MCF7; MDA-MB-435; Malme-3M; NCI-H522; OVCAR-3; OVCAR-4; RPMI-8226; SF-295; SK-MEL-2; SW-620; U-251; UACC-257; UO-31.
Assay in all cases: NCI tumour cell line growth inhibition, 48 h

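In this assay, cells in 96-well plates receive the compound at five concentrations for 48 hours. Endpoints are linearly interpolated between the surrounding concentrations. GI50 marks 50% less growth.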 Calls of active or inactive are those of the source. Rule as the data show it: active = GI50 up to about 1.1 µM and inactive = higher. Bounds are passed on as bounds.

For the molecule `COc1ccc(-n2c(N)c(C#N)c(C#N)c2-c2ccco2)cc1`, the GI50 in the assay on A498 was > 100 µM (inactive); in the assay on DU-145, > 100 µM (inactive); in the assay with HCT-116, > 100 µM (inactive); with HCT-15, > 100 µM; in the assay with HOP-92 it was 16.8 µM (inactive); in the assay with Hs-578T it was 39.7 µM (inactive). Besides, the GI50 in the assay with K562 was 59.7 µM (inactive); in the assay on MCF7, > 100 µM (inactive); in the assay with MDA-MB-435, > 100 µM (inactive); in the assay with Malme-3M, > 100 µM (inactive); in the assay with NCI-H522, 46.7 µM (inactive); with OVCAR-3, > 100 µM (inactive). The GI50 with OVCAR-4 is 23.3 µM (inactive); in the assay with RPMI-8226, > 100 µM (inactive); in the assay with SF-295, > 100 µM (inactive); in the assay on SK-MEL-2, > 100 µM (inactive); in the assay on SW-620, > 100 µM (inactive); with U-251, > 100 µM (inactive). For the same molecule, the GI50 in the assay on UACC-257 is > 100 µM (inactive); with UO-31, 82.8 µM (inactive).

Consider `CCCCC1C(=O)N(c2ccc(S(=O)(=O)Nc3ccccn3)cc2)N(c2ccc(O)c(C(=O)O)c2)C1=O` (stereo not given), for which the GI50 was > 100 µM (inactive) in the assay with A498; > 100 µM (inactive) in the assay with DU-145; > 100 µM (inactive) with HCT-116; > 100 µM in the assay with HCT-15; > 100 µM (inactive) in the assay on HOP-92; > 100 µM (inactive) in the assay on Hs-578T. In addition, the GI50 with K562, in the assay with MCF7, with MDA-MB-435, in the assay with Malme-3M, in the assay with NCI-H522 and in the assay on OVCAR-3 was > 100 µM (inactive) in each case. Moreover, the GI50 in the assay with OVCAR-4, in the assay on RPMI-8226, in the assay with SF-295, with SK-MEL-2, in the assay on SW-620 and in the assay with U-251 was > 100 µM (inactive) in each case. Besides, the GI50 in the assay with UACC-257 and with UO-31 was > 100 µM (inactive) each time.

For the molecule `O=c1[nH]/c(=C/c2ccc(OCc3ccccc3)cn2)c(=O)[nH]/c1=C/c1ccc([N+](=O)[O-])cc1`, the GI50 in the assay with A498 was 43 µM (inactive); in the assay on DU-145, > 100 µM (inactive); with HCT-116 it was > 100 µM (inactive); in the assay with HCT-15 it was > 100 µM; with HOP-92, > 100 µM (inactive); with Hs-578T it was 35.8 µM (inactive). Moreover, the GI50 in the assay with K562, in the assay on MCF7, in the assay on MDA-MB-435, with Malme-3M, in the assay on NCI-H522 and in the assay on OVCAR-3 was > 100 µM (inactive) throughout. For the same molecule, the GI50 was > 100 µM (inactive) in the assay with OVCAR-4; > 100 µM (inactive) in the assay on RPMI-8226; 49.1 µM (inactive) in the assay on SF-295; > 100 µM (inactive) with SK-MEL-2; > 100 µM (inactive) in the assay with SW-620; > 65.3 µM (inactive) in the assay with U-251. For the same molecule, the GI50 in the assay with UACC-257 and with UO-31 was > 100 µM (inactive) in each case.

Turning to `COc1cc2c(cc1O)[C@@H]1Cc3c(cc(OC)c(OC)c3Oc3cc4c(cc3OC)CCN(C)[C@@H]4Cc3ccc(O)cc3)[C@H](C2)N1C`, the GI50 in the assay on A498 is 37 µM (inactive); in the assay on DU-145 it was > 100 µM (inactive); with HCT-116, 48.1 µM (inactive); in the assay with HCT-15 it was > 78.9 µM; in the assay on HOP-92, 37.9 µM (inactive); with Hs-578T, 46 µM (inactive). Also, the GI50 in the assay with K562 is 20.3 µM (inactive); in the assay on MCF7 it was 55.5 µM (inactive); in the assay with MDA-MB-435 it was 20.6 µM (inactive); in the assay on Malme-3M, 17.1 µM (inactive); with NCI-H522, 27.7 µM (inactive); in the assay with OVCAR-3, > 100 µM (inactive). Besides, the GI50 is 33 µM (inactive) in the assay with OVCAR-4; 27.9 µM (inactive) in the assay on RPMI-8226; 46 µM (inactive) in the assay with SF-295; 22.6 µM (inactive) in the assay on SK-MEL-2; 36.6 µM (inactive) with SW-620; 46.5 µM (inactive) with U-251. Also, the GI50 with UACC-257 is 23.2 µM (inactive); in the assay on UO-31 it was > 84.9 µM (inactive).

With `O=c1[nH]c(=O)c2c([nH]1)[nH]c1ccc(Br)cc12`, the GI50 with A498 was > 100 µM (inactive); in the assay on DU-145 it was > 100 µM (inactive); in the assay on HCT-116, > 100 µM (inactive); in the assay with HCT-15 it was 66.1 µM; with HOP-92, 62.5 µM (inactive); with Hs-578T, 45.3 µM (inactive). Moreover, the GI50 is 69 µM (inactive) in the assay with MCF7; > 100 µM (inactive) in the assay with MDA-MB-435; > 100 µM (inactive) in the assay with Malme-3M; > 100 µM (inactive) with NCI-H522; 79.6 µM (inactive) in the assay with RPMI-8226; > 100 µM (inactive) in the assay on SF-295. Further, the GI50 is > 100 µM (inactive) with SK-MEL-2, > 100 µM (inactive) in the assay on SW-620, > 100 µM (inactive) in the assay on UACC-257 and 56.9 µM (inactive) in the assay on UO-31.

For the molecule `Fc1sc2c(c1F)C1CCC2C1` (stereo not given), the GI50 in the assay on A498 was > 100 µM (inactive); with DU-145, 85.7 µM (inactive); in the assay on HCT-116, 48.8 µM (inactive); with HCT-15 it was 85.9 µM; in the assay on HOP-92, > 100 µM (inactive); in the assay with Hs-578T, 19.7 µM (inactive). In addition, the GI50 with MCF7 is > 100 µM (inactive); in the assay with MDA-MB-435, 56.4 µM (inactive); with Malme-3M, > 100 µM (inactive); in the assay on NCI-H522 it was > 100 µM (inactive); in the assay on OVCAR-3, 41.9 µM (inactive); in the assay on OVCAR-4, > 100 µM (inactive). The GI50 is 31.9 µM (inactive) in the assay with RPMI-8226; > 100 µM (inactive) in the assay with SF-295; > 100 µM (inactive) in the assay on SK-MEL-2; > 100 µM (inactive) in the assay on SW-620; 97.7 µM (inactive) in the assay with U-251; 40.9 µM (inactive) in the assay on UACC-257. Further, the GI50 with UO-31 is 54 µM (inactive).

Regarding `O=C1CCCC2=C1CC1=C(CCCC1=O)N2c1ccc(-c2ccccc2)cc1`, the GI50 is > 100 µM (inactive) in the assay with A498; > 100 µM (inactive) in the assay on DU-145; > 100 µM (inactive) in the assay with HCT-116; > 100 µM in the assay with HCT-15; > 75.3 µM (inactive) in the assay on HOP-92; 43.2 µM (inactive) in the assay with Hs-578T. The GI50 with K562, in the assay with MCF7, with MDA-MB-435, in the assay with Malme-3M, in the assay with NCI-H522 and with OVCAR-3 was > 100 µM (inactive) in each case. The GI50 in the assay on OVCAR-4 is > 100 µM (inactive); with RPMI-8226, > 100 µM (inactive); with SF-295 it was > 100 µM (inactive); with SK-MEL-2, > 100 µM (inactive); in the assay with SW-620, > 100 µM (inactive); in the assay with U-251, > 75 µM (inactive). The GI50 in the assay on UACC-257 and with UO-31 was > 100 µM (inactive) throughout.

Turning to `CN(C)CC1CCC/C(=C\c2ccc(N(C)C)cc2)C1=O` (stereo not given), the GI50 is 17.1 µM (inactive) with A498; 17.1 µM (inactive) with DU-145; 3.15 µM (inactive) in the assay with HCT-116; 4.86 µM in the assay with HCT-15; 3.33 µM (inactive) in the assay on HOP-92; 3.58 µM (inactive) in the assay with Hs-578T. Further, the GI50 in the assay with K562 was 28.1 µM (inactive); in the assay with MCF7, 1.02 µM (active); with MDA-MB-435, 5.4 µM (inactive); in the assay on Malme-3M, 12.1 µM (inactive); with NCI-H522, 1.75 µM (inactive); with OVCAR-3, 2.84 µM (inactive). The GI50 in the assay with OVCAR-4 was 2.15 µM (inactive); in the assay with RPMI-8226, > 100 µM (inactive); in the assay with SF-295 it was 18.2 µM (inactive); in the assay with SK-MEL-2 it was 10.2 µM (inactive); in the assay with SW-620, 1.85 µM (inactive); in the assay with U-251 it was 17 µM (inactive). The values for the GI50 in the assay on UACC-257 and with UO-31 were 13.5 µM (inactive) and 10.4 µM (inactive), respectively.

Regarding `CC(Cl)CN1c2ccccc2Sc2ccc(Cl)cc21` (stereo not given), the GI50 with A498 is > 10 µM (inactive); in the assay on DU-145, > 10 µM (inactive); in the assay with HCT-116, > 10 µM (inactive); in the assay with HCT-15, > 10 µM; in the assay with HOP-92, > 10 µM (inactive); in the assay on Hs-578T, > 10 µM (inactive). In addition, the GI50 with K562, in the assay on MCF7, with MDA-MB-435, in the assay with Malme-3M, in the assay on NCI-H522 and in the assay with OVCAR-3 was > 10 µM (inactive) each time. For the same molecule, the GI50 in the assay with OVCAR-4, in the assay with RPMI-8226, with SF-295, in the assay with SK-MEL-2, in the assay on SW-620 and with U-251 was > 10 µM (inactive) in each case. Moreover, the GI50 in the assay on UACC-257 and with UO-31 was > 10 µM (inactive) each time.

In the case of `COc1cc(C2C3=C(COC3=O)OC(C)(C)Oc3cc4c(cc32)OCO4)cc(OC)c1O` (stereo not given), the GI50 was 1.04 µM (active) with A498; 1.39 µM (inactive) in the assay with DU-145; 0.548 µM (active) in the assay on HCT-116; 0.873 µM with HCT-15; 0.392 µM (active) with HOP-92; 1.56 µM (inactive) in the assay with Hs-578T. Besides, the GI50 in the assay on K562 is 0.383 µM (active); with MCF7, 0.364 µM (active); with MDA-MB-435, 0.217 µM (active); in the assay on Malme-3M, 0.746 µM (active); in the assay with NCI-H522, 0.244 µM (active); in the assay on OVCAR-3 it was 0.437 µM (active). Further, the GI50 with OVCAR-4 is > 38.8 µM (inactive); in the assay with RPMI-8226 it was 1.62 µM (inactive); in the assay on SF-295, 0.232 µM (active); in the assay with SK-MEL-2, 14.6 µM (inactive); in the assay on SW-620, 0.608 µM (active); in the assay on U-251, 0.966 µM (active). Further, the GI50 is 5.14 µM (inactive) in the assay on UACC-257 and 7.1 µM (inactive) with UO-31.
